# ChEMBL document CHEMBL1201862, “PubChem BioAssay data set” (2004)
#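 Following 48 hours of exposure in 96-well plates, responses at five concentrations were used to interpolate endpoints linearly. At the GI50, growth is halved.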 Active and inactive are the calls of the source. No stated cut-off is given here; in the data, active = GI50 up to about 1.1 µM and inactive = higher.
# What was measured:
# Experiment in all cases: NCI-60 cell line screen, 48 h
# [1] = test system: HCC 2998
# [2] = test system: HCT-116
# [3] = test system: HCT-15
# [4] = test system: HOP-62
# [5] = test system: KM-20L2
# [6] = test system: NCI-H460
# [7] = test system: NCI-H522
# [8] = test system: OVCAR-3
# [9] = test system: OVCAR-8
# [10] = test system: RXF 393
# [11] = test system: SK-MEL-28
# [12] = test system: SK-MEL-2
# [13] = test system: SN12C
# [14] = test system: SNB-19
# [15] = test system: SR
# [16] = test system: TK-10
# [17] = test system: U-251
# [18] = test system: A498
# [19] = test system: CAKI-1
# [20] = test system: BT-549
SMILES,GI50 [1],GI50 [2],GI50 [3] [µM],GI50 [4],GI50 [5],GI50 [6],GI50 [7],GI50 [8],GI50 [9],GI50 [10],GI50 [11],GI50 [12],GI50 [13],GI50 [14],GI50 [15],GI50 [16],GI50 [17],GI50 [18],GI50 [19],GI50 [20]
COc1ccc(CCN2CCC(C#N)(c3ccc(OC)c(OC)c3)CC2)cc1OC,> 100 µM (inactive),> 100 µM (inactive),> 100,> 100 µM (inactive),> 100 µM (inactive),> 100 µM (inactive),84.9 µM (inactive),> 100 µM (inactive),> 100 µM (inactive),49.1 µM (inactive),> 100 µM (inactive),> 100 µM (inactive),> 100 µM (inactive),> 100 µM (inactive),> 100 µM (inactive),76.2 µM (inactive),> 100 µM (inactive),,,
c1ccc2c(c1)n1nnnc1c1nnnn21,> 100 µM (inactive),> 100 µM (inactive),> 100,> 100 µM (inactive),93.8 µM (inactive),> 100 µM (inactive),12.6 µM (inactive),> 100 µM (inactive),92.7 µM (inactive),87.3 µM (inactive),> 100 µM (inactive),> 100 µM (inactive),> 100 µM (inactive),> 100 µM (inactive),,> 100 µM (inactive),> 100 µM (inactive),> 100 µM (inactive),> 100 µM (inactive),
COC(=O)CCC(NC(=S)N/N=C(\C)c1ccc[nH]1)C(=O)OC (stereo unspecified),> 100 µM (inactive),> 100 µM (inactive),> 100,> 100 µM (inactive),> 100 µM (inactive),> 100 µM (inactive),> 100 µM (inactive),> 100 µM (inactive),> 100 µM (inactive),> 100 µM (inactive),> 100 µM (inactive),> 100 µM (inactive),> 100 µM (inactive),> 100 µM (inactive),,> 100 µM (inactive),> 100 µM (inactive),> 100 µM (inactive),,
O=C1CCC(=O)N1Sc1ccccc1,,> 100 µM (inactive),> 100,> 100 µM (inactive),> 100 µM (inactive),> 100 µM (inactive),> 100 µM (inactive),> 100 µM (inactive),> 100 µM (inactive),> 100 µM (inactive),> 100 µM (inactive),> 100 µM (inactive),> 100 µM (inactive),> 100 µM (inactive),,> 100 µM (inactive),> 100 µM (inactive),> 100 µM (inactive),> 100 µM (inactive),
CC(=O)OC1COC(N2CCc3cc([N+](=O)[O-])ccc32)C(OC(C)=O)C1OC(C)=O (stereo unspecified),,,> 100,> 100 µM (inactive),> 100 µM (inactive),> 100 µM (inactive),> 100 µM (inactive),> 100 µM (inactive),> 100 µM (inactive),> 100 µM (inactive),> 100 µM (inactive),> 100 µM (inactive),,> 100 µM (inactive),> 100 µM (inactive),> 100 µM (inactive),> 100 µM (inactive),7.23 µM (inactive),> 100 µM (inactive),
CCCC[N+](CCCC)(CCCC)CCCC.O=S(=O)([O-])ON=C1c2ccccc2-c2ccccc21,> 100 µM (inactive),> 100 µM (inactive),10,> 100 µM (inactive),,> 100 µM (inactive),47.2 µM (inactive),> 100 µM (inactive),> 100 µM (inactive),> 100 µM (inactive),> 100 µM (inactive),> 100 µM (inactive),> 100 µM (inactive),> 100 µM (inactive),> 100 µM (inactive),> 100 µM (inactive),> 100 µM (inactive),> 100 µM (inactive),> 100 µM (inactive),> 100 µM (inactive)
CN(C)CCn1c(=O)c2ccc3c4c(nn3CCN(C)C)c3cc([N+](=O)[O-])ccc3n(c1=O)c24,0.0411 µM (active),< 0.0154 µM (active),0.0261,< 0.0212 µM (active),,< 0.0128 µM (active),< 0.01 µM (active),0.0883 µM (active),0.049 µM (active),0.12 µM (active),0.51 µM (active),0.133 µM (active),< 0.0207 µM (active),0.0438 µM (active),< 0.01 µM (active),0.212 µM (active),0.0281 µM (active),0.317 µM (active),0.0481 µM (active),0.906 µM (active)
N/N=C1\C(=O)N(c2ccc(Cl)c(Cl)c2)C(=O)C1C(=O)Nc1ccc(Cl)c(Cl)c1 (stereo unspecified),62.4 µM (inactive),75.2 µM (inactive),50.7,41.4 µM (inactive),48.4 µM (inactive),54.5 µM (inactive),50.9 µM (inactive),49.9 µM (inactive),42.8 µM (inactive),> 100 µM (inactive),31 µM (inactive),50.4 µM (inactive),51.5 µM (inactive),28.2 µM (inactive),,> 100 µM (inactive),31.1 µM (inactive),44.3 µM (inactive),,
CC(C)=CCC[C@@H](C)C1=C(O)C(O)C(C)=C2N=C(c3ccccc3)C(=O)OC21 (stereo partly specified),6.62 µM (inactive),4.03 µM (inactive),2.31,3.71 µM (inactive),,1.19 µM (inactive),0.624 µM (active),1.24 µM (inactive),0.933 µM (active),1.35 µM (inactive),3.07 µM (inactive),1.61 µM (inactive),1.43 µM (inactive),3.33 µM (inactive),> 9.84 µM (inactive),1.9 µM (inactive),1.57 µM (inactive),2.81 µM (inactive),2.39 µM (inactive),2.15 µM (inactive)
CC(=O)OC1(C#N)CC2OC1C1C2N1C(=O)c1ccccc1 (stereo unspecified),> 100 µM (inactive),> 100 µM (inactive),> 100,> 100 µM (inactive),> 100 µM (inactive),> 100 µM (inactive),> 100 µM (inactive),,> 100 µM (inactive),> 100 µM (inactive),> 100 µM (inactive),> 100 µM (inactive),> 100 µM (inactive),> 100 µM (inactive),,> 100 µM (inactive),> 100 µM (inactive),> 100 µM (inactive),> 100 µM (inactive),
CCNC(=S)NNC(=O)CSc1nc2ccc(I)cc2c(=O)n1Cc1ccccc1,17.6 µM (inactive),6.5 µM (inactive),14.7,35.8 µM (inactive),,12.6 µM (inactive),13.1 µM (inactive),18.2 µM (inactive),22 µM (inactive),11.8 µM (inactive),63.8 µM (inactive),29.4 µM (inactive),10.2 µM (inactive),> 87.5 µM (inactive),7.43 µM (inactive),> 51.2 µM (inactive),43.4 µM (inactive),14.5 µM (inactive),0.374 µM (active),> 54.1 µM (inactive)
O=c1oc2c(Br)c(O)c(Br)cc2c2ccccc12,33.3 µM (inactive),29.4 µM (inactive),19.2,30.5 µM (inactive),,24 µM (inactive),15.8 µM (inactive),16.5 µM (inactive),33.6 µM (inactive),38.6 µM (inactive),35.3 µM (inactive),28.2 µM (inactive),26.5 µM (inactive),30.3 µM (inactive),23.2 µM (inactive),34.9 µM (inactive),32.1 µM (inactive),25.8 µM (inactive),16 µM (inactive),29 µM (inactive)
O=C1/C(=C/c2ccc(O)cc2)CC/C1=C\c1ccc(O)cc1,> 100 µM (inactive),> 100 µM (inactive),> 100,> 61.8 µM (inactive),,44.7 µM (inactive),49.4 µM (inactive),> 100 µM (inactive),> 81.5 µM (inactive),> 100 µM (inactive),> 100 µM (inactive),> 100 µM (inactive),> 64.6 µM (inactive),> 87.1 µM (inactive),3.37 µM (inactive),> 100 µM (inactive),53.1 µM (inactive),> 33 µM (inactive),34.5 µM (inactive),> 100 µM (inactive)
CC(C(=O)N1C(=O)N(C(=O)C(C)C(O)c2ccccc2)C2CCCCC21)C(O)c1ccccc1 (stereo unspecified),,> 100 µM (inactive),> 100,> 100 µM (inactive),> 100 µM (inactive),49.1 µM (inactive),46.8 µM (inactive),78.2 µM (inactive),88.3 µM (inactive),66.1 µM (inactive),> 100 µM (inactive),30.3 µM (inactive),> 100 µM (inactive),92.7 µM (inactive),28.6 µM (inactive),> 100 µM (inactive),> 100 µM (inactive),,,
C=CCN(N=O)C(=O)NCCCCC(NC(C)=O)C(=O)NCc1ccccc1 (stereo unspecified),,,> 100,> 100 µM (inactive),> 100 µM (inactive),> 100 µM (inactive),> 100 µM (inactive),> 100 µM (inactive),> 100 µM (inactive),> 100 µM (inactive),> 100 µM (inactive),72.6 µM (inactive),> 100 µM (inactive),> 100 µM (inactive),,> 100 µM (inactive),> 100 µM (inactive),> 100 µM (inactive),> 100 µM (inactive),
COc1ccc(C2=C(Cl)c3cc(OC)c(OC)cc3C2OC)cc1OC (stereo unspecified),> 100 µM (inactive),95.7 µM (inactive),56.9,> 100 µM (inactive),> 100 µM (inactive),> 100 µM (inactive),3.25 µM (inactive),,> 100 µM (inactive),> 100 µM (inactive),> 100 µM (inactive),> 100 µM (inactive),> 100 µM (inactive),> 100 µM (inactive),,> 100 µM (inactive),,> 100 µM (inactive),> 100 µM (inactive),
